Assay results taken from patent publication US20050107289A1, “Anti-microbial peptides and compositions” (priority 2001, published 2005).
Counter-ions that a name gives are not always drawn. Like-named read-outs stand apart in the source and are kept apart here. Non-standard residues stand in square brackets, D forms with d. Residues, ends and D or L forms follow the SMILES beside them.

Legend:
[1] = Single channel conductance in planar lipid membranes; conditions: for rate of channel mediated K+ transport / observed conductance: 500 mM KCl; for observed conductance: peptide about 30 mM in the subphase; for transport speed relative to gramicidin A: similar conditions
Protocol: The ion transport properties of tetrapeptides cyclo[(β-Trp)4] and cyclo[(β-Trp-β-Leu)2], synthesized via established protocols, were studied in liposome-based assays and by single channel conductance measurements in planar lipid membranes. The observed conductance in 500 mM KCl with peptide concentrations of about […] in the subphase is 56 pS, corresponding to the rates of channel mediated K^+ transport of 1.9×10^7 ions s^−1 for both tetrapeptides.

[2] = test system: E. faecium SP180; test: microbe, parasite or virus in culture; type: cell-based, Enterococcus faecium; conditions: SP180
Protocol: (§1) The antimicrobial activity of the peptides was determined using a broth dilution assay essentially as descried in the guidelines of the National Committee for […] (NCCLS) [National Committee for Clinical Laboratory Standards. Methods for dilution antimicrobial susceptibility tests for bacteria that grow aerobically. Fourth edition. Approved Standard (1997). Document M7-A4. […] The microdilution method has the advantages of requiring less amount of peptide for each assay and the possibility of multiple simultaneous inoculations and was used in most studies. Several of the strains of bacteria tested are further described in Table 3.
(§2) Preparation of peptide solutions. Stock peptide solutions were prepared in 5% DMSO in aq. sucrose (9%). Determination of peptide concentrations was done by quantitative HPLC analysis using known concentrations of internal standards and/or by measuring UV absorption of tryptophane-containing peptide solutions in H2O (λ=280 εTrp: 5690). Serial 2-fold dilutions were made in the above DMSO/aq. sucrose (9%) mixture with concentrations ranging approximately 400-2 μg/ml and aliquots were dispensed in test tubes (100 μl) for the macrodilution test or in microtiter plates (20 μl) for the microdilution assays.
(§3) Inoculum preparation. Overnight cultures of different microorganisms grown in suitable media were diluted 4000 times to an approximate inoculum size of 2.5×10^5 cfu/ml.
(§4) Macrodilution method. Macrodilution methods were performed using procedures similar to those described in the National Committee for Clinical Laboratory Standards. Methods for dilution antimicrobial susceptibility tests for bacteria that grow aerobically. Fourth edition. Approved Standard (1997). Document M7-A4. (NCCLS,Villanova, Pa., 1997). Two ml aliquots of the above inoculum were dispensed to test tubes containing different peptide solutions.
(§5) Microdilution method. Microdilution methods were performed using procedures similar to those described in the National Committee for Clinical Laboratory Standards. Methods for dilution antimicrobial susceptibility tests for bacteria that grow aerobically. Fourth edition. Approved Standard (1997). Document M7-A4.

[3] = test system: S. aureus (MRSA) ATCC 33591; type: cell-based, Staphylococcus aureus; conditions: for MRSA (in vitro activity): Table 9
Procedure, shortened: (§6)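 Peptide activity was measured by NCCLS M7-A4 broth dilution, mostly as microdilution with some macrodilution. Serial 2-fold dilutions, approximately 400-2 μg/ml stock range, were made in 5% DMSO/9% aq. sucrose. Overnight cultures were diluted 4000-fold to about 2.5×10^5 cfu/ml inoculum.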

[4] = test system: E. faecalis ATCC 51299; test: microbe, parasite or virus in culture; type: cell-based, Enterococcus faecalis; conditions: ATCC 51299
Protocol: as §1, §2, §3, §4, §5

[5] = test system: S. aureus ATCC 33592; test: microbe, parasite or virus in culture; type: cell-based, Staphylococcus aureus; conditions: ATCC 33592
Protocol: as §1, §2, §3, §4, §5

[6] = test system: murine red blood cells; test: Red blood cell hemolysis; type: cell-based, mouse
Procedure, shortened: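 Washed murine erythrocytes at 5% in saline with 10% FBS were exposed to serial peptide dilutions for 30 min at 37° C. Supernatant absorbance at 560 nm was read, with saline as 0% and 1% Triton X-100 as 100% hemolysis.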

[7] = test system: H. influenzae ATCC 49247; test: microbe, parasite or virus in culture; type: cell-based, Hemophilus influenzae; conditions: ATCC 49247
Protocol: as §1, §2, §3, §4, §5

[8] = test system: vancomycin-resistant Enterococus faecalis (VRE)(ATCC 51575); type: cell-based, Enterococcus faecalis; design: key to VRE (in vitro activity): peptide concentration in μg/ml (broth dilution assay); conditions: for VRE (in vitro activity): Table 9; for VRE MIC: ATCC 51575
Procedure, shortened: as §6

[9] = test system: E. coli (EL744) K12 (tolC::kan); test: microbe, parasite or virus in culture; type: cell-based, Escherichia coli; conditions: MHII broth
Protocol: as §1, §2, §3, §4, §5

[10] = test system: E. coli (K12); test: microbe, parasite or virus in culture; type: cell-based, Escherichia coli; conditions: K12
Protocol: as §1, §2, §3, §4, §5

[11] = test system: Bacillus cereus ATCC 11778; type: cell-based
Procedure, shortened: as §6

[12] = test system: Streptococcus pneumoniae (ATCC 6301); type: cell-based
Procedure, shortened: as §6

[13] = test system: E. coli JM109(DE3); type: cell-based, Escherichia coli; conditions: JM109
Procedure, shortened: as §6

[14] = test system: vancomycin resistant E. faecium (VREF)(ATCC 51575); test: Mouse peritonitis model, VREF protection; type: in vivo, mice; design: PD50 VREF: unit not given here
Protocol: Vancomycin resistant Enterococcus faecium (VREF) bacteria (ATCC 51575) were grown at 37° C. in 60 mL of Brain Heart Infusion medium (BHI, Difco Laboratories) with agitation for 16 hours to a stationary phase. Cells were collected by centrifugation, washed twice with saline solution and resuspended in 6 mL of saline to a theoretical O.D.650 of 9-10 (determined by taking OD.650 of 10-20 fold diluted samples and correlating it to the original concentration). This suspension was diluted 15 times in a sterilized 5% mucin (Difco) in saline to a concentration of 5-7×10^8 cfu/ml (actual inoculum size was verified by colony counts on agar plates).
(§7) Peptides of the invention were tested in mice to ascertain whether they would protect the mice against bacterial infection using procedures similar to those described in N. Frimodt-Moller et al., The Mouse Peritonitis/Sepsis Model, in Zak et al. (eds.) HANDBOOK OF ANIMAL MODELS OF INFECTION 127-37 (Academic Press 1999).
(§8) Male Balb-C mice (6 weeks old, approximately 20 g) were used in the study. Staphylococcus aureus MRSA bacteria (ATCC 33591) were grown at 37° C. with agitation for 12 hours to a stationary phase. Cells were collected by centrifugation, washed twice with saline and resuspended to an O.D.650 of 1.4. This suspension was diluted ten times with saline and resuspended to a concentration of 3-5×10^7 cfu/ml. For each peptide five groups of eight mice per group were infected I.P. with 0.5 ml of the above Staphylococcus aureus MRSA preparation (lethal dose). Forty-five minutes to an hour after infection, each group was treated with a different dose of peptide and a control group received vehicle only. Mice were monitored for fourteen days; death was defined as the end point. Median protecting doses (PD50) were calculated following the Reed and Muench method. […] For IV and SQ models peptide was administered immediately after IP infection.

[15] = test system: S. aureus MRSA (ATCC 33591); test: Mouse peritonitis model, MRSA protection; type: in vivo, mice; design: PD50 MRSA: unit not given here
Protocol: Bacteria were prepared for in vivo using procedures similar to those as previously described. […] S. aureus MRSA bacteria (ATCC 33591) were grown at 37° C. in 5 mL of Antibiotic Medium-3 (AM-3, Difco Laboratories) with agitation for 12 hours to a stationary phase. Cells were collected by centrifugation, washed twice with saline solution and resuspended in about 10 mL of saline to an O.D.650 of 1.2. This suspension was diluted ten times in a sterilized 5% mucin (Difco) in saline to a concentration of 2-4×10^7 cfu/ml (actual inoculum size was verified by colony counts on agar plates).
as §7, §8

[16] = media b: cation adjusted Meuller Hinton broth (MHBII)
[17] = media c: Brain Heart Infusion (BHI)
[18] = Table 12, male Balb-C mice, IP infection, IP peptide
[19] = single bolus IP dose of appropriate amount, 45-60 min after infection

## cyclo[(β-Trp)4]
[1]
  rate of channel mediated K+ transport: 1.9×10^7 ions s^−1
  observed conductance: 56 pS
  transport speed relative to gramicidin A: more than twice

## CC(C)C[C@H]1NC(=O)[C@H](Cc2c[nH]c3ccccc23)NC(=O)[C@@H](CCCCN)NC(=O)[C@H](CO)NC(=O)[C@@H](CCCCN)NC(=O)[C@H](Cc2c[nH]c3ccccc23)NC(=O)[C@@H](CC(C)C)NC(=O)[C@H](Cc2c[nH]c3ccccc23)NC1=O [[KSKWLWLW]-HCl, D-Lys-Ser-D-Lys-Trp-D-Leu-Trp-D-Leu-Trp] (cyclo([dK]S[dK]W[dL]W[dL]W))
[2]
  E. faecium SP180 MIC: 4 mg/L
[3]; [16]
  MRSA (in vitro activity): 9
[4]
  E. faecalis ATCC 51299 MIC: 8 mg/L
[5]
  S. aureus ATCC 33592 MIC: 4 mg/L
[6]
  RBC Hemolysis (HD50): 60
[7]
  H. influenzae ATCC 49247 MIC: 32 mg/L
[8]; [17]
  VRE (in vitro activity): 9

## CC(C)C[C@H]1NC(=O)[C@H](CCCNC(=N)N)NC(=O)[C@@H](CCCNC(=N)N)NC(=O)[C@H](Cc2c[nH]c3ccccc23)NC(=O)[C@@H](CC(C)C)NC(=O)[C@H](Cc2c[nH]c3ccccc23)NC1=O [[RRLWLW]-HCl, cyclo-(D-Arg-Arg-D-Leu-Trp-D-Leu-Trp)] (cyclo(R[dL]W[dL]W[dR]))
[2]
  E. faecium SP180 MIC: 8 to 16 mg/L
[4]
  E. faecalis ATCC 51299 MIC: 32 to 64 mg/L
[5]
  S. aureus ATCC 33592 MIC: 32 mg/L
[7]
  H. influenzae ATCC 49247 MIC: 8 to 16 mg/L
[9]
  E. coli (EL744) K12 (tolC::kan) MIC: 8 mg/L
[10]
  E. coli (K12) MIC: 16 mg/L

## CC(C)C[C@H]1NC(=O)[C@H](Cc2c[nH]c3ccccc23)NC(=O)[C@@H](CCCCN)NC(=O)[C@H](CCCNC(=N)N)NC(=O)[C@@H](CCCNC(=N)N)NC(=O)[C@H](Cc2c[nH]c3ccccc23)NC(=O)[C@@H](CC(C)C)NC(=O)[C@H](Cc2c[nH]c3ccccc23)NC1=O [[RRKWLWLW]-HCl, cyclo-(D-Arg-Arg-D-Lys-Trp-D-Leu-Trp-D-Leu-Trp)] (cyclo([dR]R[dK]W[dL]W[dL]W))
[2]
  E. faecium SP180 MIC: 4 mg/L
[3]; [16]
  MRSA (in vitro activity): 9
[4]
  E. faecalis ATCC 51299 MIC: 8 to 16 mg/L
[5]
  S. aureus ATCC 33592 MIC: 8 mg/L
[6]
  RBC Hemolysis (HD50): 70
[7]
  H. influenzae ATCC 49247 MIC: 32 to 64 mg/L
[8]; [17]
  VRE (in vitro activity): 9
[10]
  E. coli (K12) MIC: 32 mg/L

## CC(C)C[C@H]1NC(=O)[C@H](CCCCN)NC(=O)[C@@H](CCCCN)NC(=O)[C@H](Cc2c[nH]c3ccccc23)NC(=O)[C@@H](CC(C)C)NC(=O)[C@H](Cc2c[nH]c3ccccc23)NC1=O [[KKLWLW]-HCl, cyclo-(D-Lys-Lys-D-Leu-Trp-D-Leu-Trp)] (cyclo(K[dL]W[dL]W[dK]))
[2]
  E. faecium SP180 MIC: 16 mg/L
[4]
  E. faecalis ATCC 51299 MIC: >128 mg/L
[5]
  S. aureus ATCC 33592 MIC: 32 mg/L
[7]
  H. influenzae ATCC 49247 MIC: >128 mg/L
[9]
  E. coli (EL744) K12 (tolC::kan) MIC: 32 mg/L
[10]
  E. coli (K12) MIC: >128 mg/L

## cyclo[(β-Trp-β-Leu)2]
[1]
  rate of channel mediated K+ transport: 1.9×10^7 ions s^−1
  observed conductance: 56 pS
  transport speed relative to gramicidin A: more than twice

## CC(C)C[C@@H](NC(=O)[C@H](Cc1c[nH]c2ccccc12)NC(=O)[C@@H](CC(C)C)NC(=O)[C@H](Cc1c[nH]c2ccccc12)NC(=O)[C@@H](CCCCN)NC(=O)[C@H](CCCCN)NC(=O)[C@H](N)CCCCN)C(=O)N[C@@H](Cc1c[nH]c2ccccc12)C(N)=O [SEQ ID NO:134, H-KKKWLWLW-NH2] (H-[dK]K[dK]W[dL]W[dL]W-NH2)
[3]; ATCC 33591
  MRSA MIC: 30 mg/L
[11]
  B. cerius MIC: 19 mg/L
[12]
  S. pneum. MIC: 80 mg/L
[6]; red cells of murine
  Hemolysis HD50: 100 µg/mL
[8]
  VRE MIC: 100 mg/L
[13]
  E. coli MIC: 3 mg/L

## CC(C)C[C@H]1NC(=O)[C@H](Cc2c[nH]c3ccccc23)NC(=O)[C@@H](CCCCN)NC(=O)[C@H](CCCCN)NC(=O)[C@@H](CCCCN)NC(=O)[C@H](Cc2c[nH]c3ccccc23)NC(=O)[C@@H](CC(C)C)NC(=O)[C@H](Cc2c[nH]c3ccccc23)NC1=O [SEQ ID NO:17, cyclo[-(D-Lys-Lys-D-Lys-(Trp-D-Leu)2-Trp-]] (cyclo([dK]K[dK]W[dL]W[dL]W))
[3]; ATCC 33591
  MRSA MIC: 10 mg/L
  S. aureus (MRSA) MIC: 8 mg/L
[3]; media a: anti-microbial media-3 (AM-3)
  MRSA (in vitro activity): 10
[14]
  PD50 E. faecium VREF infection: 13 mg/kg
[14]; [18]
  PD50 VREF: 13
[14]; [19]
  protection of mice from VREF infection: completely protect
[11]
  B. cerius MIC: 5 mg/L
[12]
  S. pneum. MIC: 10 mg/L
[6]
  RBC Hemolysis (HD50): 45
[15]
  PD50 S. aureus MRSA infection: 7 mg/kg
[15]; FIG. 6, mice challenged with lethal doses of MRSA
  PD50 protective dose where 50% of animals survive: 6 ± 2 mg/kg
[15]; [18]
  PD50 MRSA: 7
[15]; [19]
  protection of mice from MRSA infection: completely protect
[8]
  VRE MIC: 40 mg/L
[8]; media a: AM-3
  VRE (in vitro activity): 40
